Results on twelve sequences are retold here after patent publication US11618770B2, “MUC1-derived peptide, and pharmaceutical composition for treatment or prevention of cancer, immunity-inducing agent and method for manufacturing antigen presenting cell using same” (NEC CORPORATION, priority 2015, dated 2023).

For one test, the target named is T1, HLA-A*02:06 molecule (Homo sapiens, UniProt P04439, D140Y/D185E/D98H/E176V/E277Q/F33Y/G131W/G231S/I119V/I121R/I166T/I218V/L300P/L318F/N151K/N90K/P208A/P217A/Q86G/Q94H/R138H/R169H/T345S).
T1 construct: expressed in transfected cells; host or cells: RA2.6 cells (mouse TAP-deficient RMAS cells carrying HLA-A*02:06 cDNA)
As to the kind of experiment: Experiment of binding peptide to HLA-A*02:06 molecule (RA2.6 cells, antibody BB7.2, flow cytometer). To be noted: for Kd: given as negative numbers (log of Kd value), RA2.6 cells. On the procedure:
Experiment of Binding Peptide to HLA-A*02:06 Molecule
The ability of each of the peptides to bind to an HLA-A*02:06 molecule, which is an HLA-A*02:06 gene product, was measured using RA2.6 cells (cell line that had been newly produced in Kochi University) produced by introducing the cDNA of the HLA-A*02:06 gene into a mouse TAP (transporter associated with antigen processing)-deficient cell line RMAS.
First, RA2.6 cells were cultured at 26° C. overnight.
Thereafter, the cells were cultured at 35° C. for 4 hours. […] A fluorescently labeled monoclonal antibody BB7.2, which specifically recognizes a peptide-binding HLA-A*02:06 molecule, was added thereto, incubation was carried out on ice for 20 minutes, and thus the cells were stained.
(§1) Thereafter, the amount of fluorescence per cell was measured using a flow cytometer, and a dissociation constant Kd value was calculated using a method that was reported in a paper (Udaka et al., Immunogenetics, 51, 816-828, 2000) by the inventors of the present invention.
In general terms: Flow cytometry measures light scatter and fluorescence of single cells or particles in a stream.

For a further test, the target named is T2, HLA-A*02:01 molecule (Homo sapiens, UniProt P04439, D140Y/D185E/D98H/E176V/E277Q/G131W/G231S/I119V/I121R/I166T/I218V/L300P/L318F/N151K/N90K/P208A/P217A/Q86G/Q94H/R138H/R169H/T345S).
T2 construct: a cell line T2 (purchased from ATCC) expressing the HLA-A*02:01 molecule; host or cells: T2 cells
In words: Experiment of binding peptide to HLA-A*02:01 molecule (T2 cells, antibody BB7.2, flow cytometer). To be noted: for Kd: given as negative numbers (log of Kd value), T2 cells, 37° C. 4 hours. As for the experimental part:
Experiment of Binding Peptide to HLA-A*02:01 Molecule
The ability of each of the peptides to bind to an HLA-A*02:01 molecule, which is an HLA-A*02:01 gene product, was measured using a cell line T2 (purchased from ATCC) expressing the HLA-A*02:01 molecule.
The T2 cells and purified β2m were added to a series of serial dilutions of the peptide whose binding ability would be measured, and then incubation was carried out at 37° C. for 4 hours. The HLA-A*02:01 molecule that had increased in an expression amount in a peptide-concentration-dependent manner up to this point was stained using a fluorescently labeled monoclonal antibody BB7.2, which is specific to an association type.
as §1

The target in the next test is HLA-A*24:02 molecule (Homo sapiens, UniProt P04439, D101N/D140Y/D185E/E176V/E190D/F33S/G103R/G107R/I119L/I121M/I306V/K335N/L105A/L180Q/L300P/N151K/N90K/Q86E/Q94H/R106L/R138H/R89G/T104I/T345S/V100E/W191G/Y123F). As to the kind of experiment: Experiment of binding peptide to HLA-A*24:02 molecule (C1R-A24 cells, antibody 17A12, FACS). The following applies: for Kd: given as negative numbers (log of Kd value), C1R-A24 cells, on ice 4 hours. On the procedure: Experiment of Binding Peptide to HLA-A*24:02 Molecule
The ability of each of the peptides to bind to an HLA-A*24:02 molecule, which is an HLA-A*24:02 gene product, was measured using C1R-A24 cells expressing the HLA-A*24:02 molecule (cells prepared by Professor Masafumi TAKIGUCHI, Kumamoto University being supplied with permission by Assistant Professor Masaki YASUKAWA, Ehime University).
First, C1R-A24 cells were exposed to acidic conditions at a pH of 3.3 for 30 seconds, and thus an endogenous peptide that originally binds to the HLA-A*24:02 molecule, and a light chain β2m, which is associated with HLA class-I molecules in common, were dissociated and removed. After neutralization, a purified β2m was added to C1R-A24 cells, and the obtained product was added to a series of dilutions of the peptide and incubated on ice for 4 hours. Staining was carried out using a fluorescently labeled monoclonal antibody 17A12, which recognizes association (MHC-pep) of the three members, that is, a HLA-A*24:02 molecule, a peptide, and β2m, which had reassociated during the incubation.
Thereafter, the MHC-pep count per C1R-A24 cell (proportional to the intensity of fluorescence of the above-mentioned fluorescent antibody) was quantitatively measured using a fluorescence-activated cell sorter FACScan (Becton-Dickinson). A binding-dissociation constant Kd value between the HLA-A*24:02 molecule and the peptide was calculated from the average intensity of fluorescence per cell using a method that was reported in a paper (Udaka et al., Immunogenetics, 51, 816-828, 2000) by the inventors of the present invention.

The subject of a further test is CD8T cells. As to the kind of experiment: Peptide immunity induction testing (peptide-stimulated dendritic cells cocultured with CD8T cells, IFN-γ ELISA). Format: cell-based, human. On the procedure:
Peptide Immunity Induction Testing
Of the peripheral blood monocytes obtained through pheresis from a patient (0) that had undergone a dendritic cell/CTL therapy against MUC1, a cell fraction that adhered to a culture flask was cultured in an AIM-CM culture medium (manufactured by Gibco) at 37° C. for 10 days. During the culture, 15 μl of IL-4 and 30 μl of a granulocyte monocyte colony-stimulating factor (GM-CSF) added to the culture medium on Day 0 and Day 3, and 15 μl of IL-4, 30 μl of GM-CSF, and 75 μl of a tumor necrosis factor (TFN)-α were added thereto on Day 5.
Induced dendritic cells were collected in a new AIM-CM culture medium, and the peptide of the present invention (Sequence ID Nos. 1 to 12) was added thereto to a concentration of 20 μg/ml. […]
CD8T cells were isolated from the culture medium using a CD8 negative selection kit (manufactured by Miltenyi), and the number of cells was counted. […]
The culture supernatant of the coculture of the T cells and the dendritic cells pulsed with the above-mentioned peptides on Day 7 was diluted to four steps, that is, ×1, ×5, ×25, and ×125, and the dilution step within a measurement limit was identified using Human IFN-γ ELISA MAX Deluxe Set (manufactured by BioLegend). Thereafter, at the identified dilution step, each sample was measured three times. […]

Ends that are not written are not given here.

For orientation: Kd means the constant that tells how readily two partners part at equilibrium. A lower Kd goes with a tighter complex. Regarding AASRYNLTI [Seq. ID No. 5, AASRYNLTI], the Kd at HLA-A*02:06 molecule is 150 µM; at HLA-A*02:01 molecule, 15.4 µM; on HLA-A*24:02 molecule, 0.711 µM.

For AFREGTINV [Seq. ID No. 4, AFREGTINV], the Kd is more than 1000 µM on HLA-A*02:06 molecule, more than 1000 µM at HLA-A*02:01 molecule and 1.47 µM at HLA-A*24:02 molecule.

As for FLGLSNIKF [Seq. ID No. 1, FLGLSNIKF], the values for the Kd at HLA-A*02:06 molecule, on HLA-A*02:01 molecule and on HLA-A*24:02 molecule were 41.1 µM, 4.07 µM and 0.0845 µM, respectively.

FSAQSGAGV [Seq. ID No. 12, FSAQSGAGV]: the Kd at HLA-A*02:06 molecule was 2.18 µM; on HLA-A*02:01 molecule, 18.2 µM; at HLA-A*24:02 molecule, more than 1000 µM.

On to GQDVTSVPV [Seq. ID No. 11, GQDVTSVPV], for which the Kd on HLA-A*02:06 molecule was 0.448 µM; at HLA-A*02:01 molecule, 0.366 µM; at HLA-A*24:02 molecule, more than 1000 µM.

As to GVPGWGIAL [Seq. ID No. 3, GVPGWGIAL], the Kd at HLA-A*02:06 molecule is 1.73 µM; at HLA-A*02:01 molecule, 28.3 µM; on HLA-A*24:02 molecule, 1.18 µM.

For the sequence HHSDTPTTL [Seq. ID No. 7, HHSDTPTTL], the values for the Kd at HLA-A*02:06 molecule, at HLA-A*02:01 molecule and on HLA-A*24:02 molecule were more than 1000 µM, more than 1000 µM and 1.36 µM, respectively.

LQRDISEMF [Seq. ID No. 6, LQRDISEMF]: the Kd on HLA-A*02:06 molecule was 54.9 µM; at HLA-A*02:01 molecule it was more than 1000 µM; at HLA-A*24:02 molecule, 0.226 µM.

With SFFFLSFHI [Seq. ID No. 8, SFFFLSFHI], the Kd is 105 µM at HLA-A*02:06 molecule, more than 100 µM at HLA-A*02:01 molecule and 0.0861 µM on HLA-A*24:02 molecule.

With STGVSFFFL [Seq. ID No. 10, STGVSFFFL], on HLA-A*02:06 molecule, the “Binding to HLA-A*02:06 molecule (in words)” value is on record as “strongly binds” and the Kd is 6.19 µM. On HLA-A*02:01 molecule, the “Binding to HLA-A*02:01 molecule (in words)” value was “strongly binds” and binding was characterised by a dissociation constant (Kd) of 7.55 µM. Besides, the “Immunogenicity (in words)” value with CD8T cells is reported as “high immunogenicity”. For the same sequence, at HLA-A*24:02 molecule, the “Binding to HLA-A*24:02 molecule (in words)” value is on record as “strongly binds” and the Kd was 6.74 µM.

For the sequence SVPVTRPAL [Seq. ID No. 2, SVPVTRPAL], the Kd was 2.36 µM on HLA-A*02:06 molecule, 125 µM at HLA-A*02:01 molecule and 0.0573 µM on HLA-A*24:02 molecule.

As for TLAFREGTI [Seq. ID No. 9, TLAFREGTI], the Kd on HLA-A*02:06 molecule is 820 µM; on HLA-A*02:01 molecule, more than 1000 µM; on HLA-A*24:02 molecule it was 1.06 µM.
